Results on 3 compounds are retold here after PMC4335020, “Single Oral Dose Pharmacokinetics of Decursin and Decursinol Angelate in Healthy Adult Men and Women” (PLoS ONE, 2015).

A short description of data set [1]: Stability of D and DA in fresh human whole blood and plasma. In kind it is in vitro ADME. The settings on record: 37°C for 1 h, no detectable generation of DOH and other metabolites (data not shown). The procedure:
To rule out possible artifacts of blood collection, processing and blood-borne esterases, we tested the stability of D and DA in freshly obtained human whole blood and plasma. There was no loss of D and DA in plasma and whole blood after incubation at 37°C for 1 h, with no detectable generation of DOH and other metabolites (data not shown).

A short description of data set [2]: Urinary excretion after single oral dose of Cogni.Q. The following applies: pooled 0-24 h urine; for number of subjects with analyte detected in urine: of 20 subjects. The class given is in vivo, human. How it is done: Plasma was prepared by centrifuging the heparinized blood at 1000 g for 15 minutes at room temperature. Urine samples (40mL) were collected within time spans of 0–4, 4–8, 8–12 and 12–24 hours (total volume of urine was recorded). All plasma and urine samples were put on dry ice immediately and then stored at -80°C freezer until analysis.
Urine samples from each subject collected from 0 to 24 hours post-dose were pooled proportional to the volume of urine in each sampling period. Urine sample (200μL) was spiked with 5 μL of prednisolone solution (10 ng/μL, IS), and extracted with 1500 μL of ethyl acetate. The ethyl acetate fraction was recovered and dried using a SpeedVac. The dried residue was reconstituted in 50 μL of methanol for UHPLC-MS/MS analysis and 5 μL of the sample was injected.
Urine samples from each subject were pooled proportional to the amount of urine in each sampling period (hours 0–4, 4–8, 8–12 and 12–24). DA was detected in its original form in the urine of 14 subjects whereas D was only detected in the urine of 3 subjects. The levels of detectable D and DA ranged from 0.06∼1.74 nmol/L. DOH was detected in the urine of all subjects with a mean concentration of 289 nmol/L. These extractable unmodified pyranocoumarin forms accounted for the 24-hour cumulative excretion of less than 1% of the ingested pyranocoumarins. Further work is needed to estimate the extent of additional metabolites (free and conjugated forms) in urine and plasma.

Details of data set [3]: method as in PMID 23364885. The following applies: rat n = 3, oral 33.5 mg/kg D and 21.5 mg/kg DA, cited from earlier work; for Cmax: read-out: C max, nmol/, Mean (SD).
Details of data set [4]: method as in PMID 24026903. The settings on record: in vitro; cited from earlier work.
On the set-up of data set [5]: method as in ref 23 = [23]; 23 Zhang J, Li L, Tang S, Zhang Y, Markiewski M, et al. (2013) Subchronic Toxicological Evaluation of Ethanol Extract of Medicinal Herb Angelica gigas Nakai and its Pyranocoumarin Tissue Distribution. The following applies: rodents; cited from earlier work.
On the set-up of data set [6]: method as in ref (9) of IRB protocol. The settings on record: ref (9) of IRB protocol; cited from earlier work.
Data set [7] concerns cultured prostate and breast cancer cells. The arrangement: method as in PMID 15705905, PMID 17363485, PMID 17986353. The settings on record: up to 100 μM; cited from earlier work.
The subject of data set [8] is primary cultures of rat cortical cells. The arrangement: method as in PMID 17637179. The following applies: as low as 0.1 μmol/L; cited from earlier work.
Data set [9] deals with human umbilical vein endothelial (HUVEC) cells. The arrangement: method as in PMID 19307054. The following applies: 1 μmol/L; cited from earlier work.
Data set [10] has as its system murine colon carcinoma CT-26 cells. The arrangement: method as in PMID 21170925. The settings on record: daily oral 10 mg/kg for 14 days, 30 minutes prior to CT-26 injection through tail vein; cited from earlier work.

For `C/C=C(/C)C(=O)O[C@H]1Cc2cc3ccc(=O)oc3cc2OC1(C)C` [DA, decursinol angelate], in data set [1], the “loss after incubation in plasma and whole blood” value is recorded as “no loss”. Besides, the “number of subjects with analyte detected in urine” value (“number of subjects” below) in [2] turned out to be 14 subjects. In [3], the “AUC0–48h, h nmol/L, Mean (SD)” value is listed as 64.3 (8.8) h nmol/L; the “T max, h, median (range)” value was 1 (0.5–2) h; the Cmax was 7.3 nM. Also, the “rate of metabolism by human vs mouse and rat liver S9 fraction” value in data set [4] was “metabolized more slowly by human liver S9 fraction”. The tissue/plasma ratios entry in data set [5] is “substantially greater than that of DOH”. For the same compound, in data set [6], the “rate of metabolism by human vs mouse and rat liver microsomes” value was “metabolized much slower by human”.
For `CC1(C)Oc2cc3oc(=O)ccc3cc2C[C@@H]1O` [DOH, decursinol], the “number of subjects” value in data set [2] is reported as “all subjects”. Besides, in data set [2] (all subjects), the urine mean concentration was 289 nmol/L. Moreover, in data set [3], the “AUC0–48h, h nmol/L, Mean (SD)” value is listed as 81272 (6829) h nmol/L; the “T max, h, median (range)” value is listed as 4 (3–8) h; the Cmax is 5640 nM. In addition, in data set [7], the anti-proliferative effect result is listed as “little anti-proliferative effect”. The “protective effect on glutamate-injured cells” value in [8] was “strong protective effect”. In addition, the “VEGF-induced proliferation and capillary-tube formation” value in data set [9] is on record as “significantly inhibited”.
As to `CC(C)=CC(=O)O[C@H]1Cc2cc3ccc(=O)oc3cc2OC1(C)C` [D, decursin], in [1], the “loss after incubation in plasma and whole blood” value is reported as “no loss”. Besides, in [2], the “number of subjects” value amounted to 3 subjects. In data set [3], the “AUC0–48h, h nmol/L, Mean (SD)” value is 36.0 (14.3) h nmol/L; the “T max, h, median (range)” value is 1 (0.5–2) h; the Cmax is 7.3 nM. In addition, the “rate of metabolism by human vs mouse and rat liver S9 fraction” value in data set [4] is “metabolized more slowly by human liver S9 fraction”. Also, the “formation of tumor nodules in the lungs and lung weight” value in data set [10] is “reduced the formation of tumor nodules in the lungs and decreased lung weight”. Further, the tissue/plasma ratios entry in data set [5] is “substantially greater than that of DOH”. Further, the “rate of metabolism by human vs mouse and rat liver microsomes” value in data set [6] is “metabolized much slower by human”.
